Experimental data from PMC12040169 (PLOS Biology, 2025).

test: in vitro; conditions: human, hela cells, % viability

Point of comparison: `CCN1CCCC1CNc1c(Cl)c(Cl)nc2c1c(=O)n(C)c(=O)n2C` (centres unmarked) [CBK007287], viability at 28.5 h, 10 µM 97.2%. Against it:
- COc1cc(C(=O)CCN2CCCCC2)cc(OC)c1OC [CBK015639C] — higher, 107%
- Cc1ccc(N2CCN(C3=NC(=O)/C(=C\c4ccc(O)c([N+](=O)[O-])c4)S3)CC2)cc1 [CBK264347] — lower, 92.9%
- COC(=O)C(CCSC)NC(=O)c1cccs1 (centres unmarked) [CBK057972] — lower, 94%
- OC(COCc1ccccc1)CN1CCN(Cc2ccccc2)CC1 (centres unmarked) [CBK278297C] — higher, 107%
- CCCn1ccnc1CN1CCC2(CC1)CC(C(=O)O)N(C(C)=O)C2 (centres unmarked) [CBK306691] — lower, 92.9%
- Cc1cccc(C)c1NC(=O)CN1CCC(Oc2cncc(OCc3cccnc3)n2)C1 (centres unmarked) [CBK084460] — lower, 87.6%
- CCCC/C=C/c1cc(NCCc2ccccn2)n2nccc2n1 [CBK037155] — lower, 96.5%
- O=C(CN1CCC(c2ccc(F)cc2)CC1)NCc1ccco1 [CBK283641] — lower, 94.9%
- COc1ccc(CCNc2c3c(c(C#N)c4nc5ccccc5n24)CCC3)cc1OC [CBK263147] — higher, 97.9%
- CCOc1ccsc1C(=O)N1CCc2ccccc2C1 [CBK200339] — lower, 95.1%
- CC(CCCC(C)(C)O)Nc1cncc(-c2cccc(Cl)c2)n1 (centres unmarked) [CBK037857] — lower, 90.1%
- COc1ccc(Cl)cc1S(=O)(=O)N1CCCC(C(=O)NCc2ccccn2)C1 (centres unmarked) [CBK269761] — lower, 96.7%
- COC1C(O)C(CO)OC1n1cnc2cnc(N)nc21 (centres unmarked) [CBK201290] — lower, 84.9%
- CCc1c(C)sc(NC(=S)Nc2cnccn2)c1C(=O)OC [CBK267088] — lower, 96.5%
- Cc1cc(C)n(-c2cccc(C(=O)NCCn3ccnc3)c2)n1 [CBK281585] — higher, 109%
- CCN(CC)C(=O)Cn1nc(C)n2c(cc3occc32)c1=O [CBK283620] — lower, 86.7%
- FCCOc1cncc(Cl)n1 [CBK113553] — higher, 115%
- CN(C)c1nc(NCc2ccccc2)nc(SCC(=O)Nc2ccccc2Cl)n1 [CBK267190] — lower, 93.3%
- c1ccc(Oc2ccc(Nc3ccc(-c4cccc5cccnc45)cn3)cc2)cc1 [CBK037643] — higher, 105%
- COc1ccc(C2=NN(c3ccc([N+](=O)[O-])cc3)C(=O)/C2=C\NCCN2CCOCC2)cc1 [CBK264563] — higher, 114%
- CCCCOC(=O)c1ccccc1NC(=O)NCCc1cccs1 [CBK043573] — lower, 93.5%
- CCOc1ccc(S(=O)(=O)N2CCN(Cc3cc(C(=O)OC)n(C)c3)CC2)c2cccnc12 [CBK062796] — lower, 92.6%
- COCCNC(=O)c1nn2c(c1Br)NC(c1cccs1)CC2C(F)(F)F (centres unmarked) [CBK307178] — lower, 84.5%
- COCc1cc(C)nc(NCCO)c1C#N [CBK262556] — lower, 96.6%
- O=C(CCN1C(=O)/C(=C\C=C\c2ccccc2)SC1=S)Nc1cc(Cl)ccc1O [CBK264792] — lower, 96.2%
- CCCCOc1nccnc1-c1ccsc1 [CBK106778] — higher, 101%
- O=C1CNC(=O)N1CC(O)Cn1c2ccc(Cl)cc2c2cc(Cl)ccc21 (centres unmarked) [CBK265792] — lower, 90.1%
- Cn1cc(CCNC(=O)Nc2ccc(N3CCCC3)nc2)cn1 [CBK305659] — lower, 92.3%
- O=C(COc1ccc(C2CCCCC2)cc1)Nc1cccc(-c2nc3ncccc3o2)c1 [CBK264569] — lower, 90.9%
- C[N+]1(C)CCCC1c1cc(Br)cnc1N (centres unmarked) [CBK217873I] — lower, 90.8%
- COc1cccc(NC(=O)c2ccc(NC(=O)CCCC(=O)O)cc2)c1 [CBK287137] — lower, 83.7%
- O=C(O)C1CCCCN1S(=O)(=O)c1ccc(Cl)cc1 (centres unmarked) [CBK077418] — lower, 91.6%
- COc1ccc(CCC(=O)Nc2ncccc2OCCCC#N)cc1 [CBK304957] — higher, 105%
- O=C(CSc1nnc(-c2ccc(Cl)cc2Cl)o1)c1ccc2c(c1)OCCO2 [CBK268839] — higher, 113%
- CC(C)(C)c1ccc(-c2cnc(N)c3ncccc23)cc1 [CBK067589] — higher, 99.2%
- CC(Cc1cccs1)C(=O)N1CCn2cnnc2C1 (centres unmarked) [CBK282109] — lower, 96%
- COc1ccc(NC(=O)NS(=O)(=O)c2sc3ccc(Cl)cc3c2C)cc1OC [CBK156300] — lower, 91.3%
- CON=Cc1c[nH]c2ccccc12 [CBK168628] — lower, 93.7%
- COC[C@@H]1CCCN1S(=O)(=O)c1ccc(Cl)c(Cl)c1 [CBK044313] — lower, 91.3%
- c1ccc2c(c1)CC(Oc1cncc(N3CCNCC3)n1)C2 [CBK000242G] — higher, 106%
- c1ccc2c(c1)OCC(COc1ccnc(N3CCCN(CC4CCCCC4)CC3)n1)O2 (centres unmarked) [CBK083982] — higher, 115%
- Clc1ccc(-c2cncc(NCCc3ccncc3)n2)cc1 [CBK065787] — higher, 99.5%
- Cc1[nH]c2ccccc2c1C(=O)CSc1nnc(N)s1 [CBK266328] — higher, 102%
- O=c1sn(C2CCCCC2)c(=O)n1Cc1ccc(F)cc1 [CBK113604] — lower, 90.8%
- O=C(COC(=O)c1ccc2c(c1)C(=O)N(c1ccc(Oc3ccccc3)cc1)C2=O)c1ccc(Br)cc1 [CBK261607] — higher, 105%
- CCC1CCCCN1C(=O)c1ccc(C)c(Cl)c1 (centres unmarked) [CBK082756] — lower, 91.7%
- Cc1ccc(Cl)c(OC(C)C(=O)N2CCN(c3ccccn3)CC2)c1 (centres unmarked) [CBK304650] — lower, 90.4%
- CCOC(=O)CCNC(=O)C1(c2ccc(OC)cc2)CC1 [CBK161490] — lower, 87.3%
- O=[N+]([O-])c1cccc(C(Nc2ccccn2)n2cnc3ccccc32)c1 (centres unmarked) [CBK261145] — lower, 87.6%
- CCc1ccc(CN2CCC(Oc3ccccc3F)(C(=O)O)CC2)nc1 [CBK307528] — lower, 93.1%
- CCN(c1cc(N2CCCNCC2)ccc1NS(=O)(=O)c1cccc2cccnc12)S(C)(=O)=O [CBK000014C] — lower, 80.1%
- O=C1CCC(=O)N1CCOc1nccnc1N1CCN(Cc2ccc(Cl)c(Cl)c2)CC1 [CBK084287] — lower, 92.9%
- O=C(O)c1ccc(OCCNS(=O)(=O)c2ccc3ccccc3c2)cc1 [CBK299807] — lower, 83.5%
- O=C(COc1ccccc1)NC(=S)Nc1cc(-c2nc3ncccc3o2)ccc1Cl [CBK264380] — lower, 89.3%
- CCCS(=O)(=O)n1c(=O)n(Cc2ccc(OC)cc2)c2ccccc21 [CBK106553] — higher, 99.7%
- c1ccc(-c2nc3ccc(Cc4ccc5nc(-c6ccccn6)c(-c6ccccn6)nc5c4)cc3nc2-c2ccccn2)nc1 [CBK261975] — higher, 101%
- COc1cnc(-c2cc(Cl)cc(Cl)c2)c(NC(C)=O)n1 [CBK145333] — higher, 105%
- Cc1cc(C)nc(SCC(=O)Nc2cccc(C(=O)O)c2)n1 [CBK263214] — higher, 101%
- CCOC(=O)c1cnc(SC)nc1NCCc1c[nH]c2cc(OC)ccc12 [CBK092317] — lower, 87.6%
- CN(c1ccccc1)S(=O)(=O)c1ccc(C(=O)NCc2cccnc2)cc1 [CBK297522] — lower, 95.5%
- Cc1nccnc1N1CCC2(CCCN(CC3CCC3)C2=O)C1 (centres unmarked) [CBK306806] — higher, 103%
- CC(C)(C)c1ccc(C(=O)N2CCCCC2CO)cc1 (centres unmarked) [CBK073951] — lower, 86.4%
- O=C(NCc1cccs1)c1ccccc1Nc1cccc(C(F)(F)F)c1 [CBK149557] — higher, 104%
- O=C(CN1CCCCCC1=O)Nc1nc(-c2ccccc2F)cs1 [CBK281408] — higher, 104%
